The text below walks through data of US10493077B2, “Fused imidazo-piperidine JAK inhibitor compound” (THERAVANCE BIOPHARMA R&D IP, LLC, priority 2017, dated 2019).

Usually pIC50 stands for −log10 of the IC50, conventionally taken in molar units. Usually inhibition stands for the share of the control response that was lost under treatment. High values mean a response far below the control, low ones a response near the control.

Each structure is given as a SMILES string. pIC50: −log10 of the molar value. Like-named read-outs stand apart in the source and are kept apart here.

Assay [1] concerns the target T1, JAK2 (Homo sapiens, UniProt O60674).
T1 construct: GST; purchased Life Technologies
The assay is described as follows: LanthaScreen JAK biochemical assay, JAK2. The note with it: read-out: JAK 2 pKi (converted). The method, then:
(§1) A panel of four LanthaScreen JAK biochemical assays (JAK1, 2, 3 and Tyk2) were carried in a common kinase reaction buffer (50 mM HEPES, pH 7.5, 0.01% Brij-35, 10 mM MgCl2, and 1 mM EGTA). Recombinant GST-tagged JAK enzymes and a GFP-tagged STAT1 peptide substrate were obtained from Life Technologies.
(§2) Serially diluted compound was pre-incubated with each of the four JAK enzymes and the substrate in white 384-well microplates (Corning) at ambient temperature for 1 h. ATP was subsequently added to initiate the kinase reactions in 10 μL total volume, with 1% DMSO. […] The plates were allowed to incubate at ambient temperature for 1 h before being read on the EnVision reader (Perkin Elmer). Emission ratio signals (520 nm/495 nm) were recorded and utilized to calculate the percent inhibition values based on DMSO and background controls.
(§3) For dose-response analysis, percent inhibition data were plotted vs. compound concentrations, and IC50 values were determined from a 4-parameter robust fit model with the Prism software (GraphPad Software). Results were expressed as pIC50 (negative logarithm of IC50) and subsequently converted to pKi (negative logarithm of dissociation constant, Ki) using the Cheng-Prusoff equation.
A general note: In TR-FRET formats the signal depends on donor and acceptor labels being close together.

Assay [2] concerns the target T2, Tyk2 (Homo sapiens, UniProt P29597).
T2 construct: GST; purchased Life Technologies
The assay is described as follows: LanthaScreen JAK biochemical assay, Tyk2. The note with it: read-out: Tyk2 pKi (converted). As for the experimental part:
as §1, §2, §3

The test system of assay [3] is IL-13 induced STAT6 phosphorylation in BEAS-2B human lung epithelial cells. The assay is described as follows: Cellular JAK potency assay: inhibition of IL-13 (AlphaScreen, BEAS-2B). Type of assay: cell-based. The method, then: The AlphaScreen JAK1 cellular potency assay was carried out by measuring interleukin-13 (IL-13, R&D Systems) induced STAT6 phosphorylation in BEAS-2B human lung epithelial cells (ATCC). The anti-STAT6 antibody (Cell Signaling Technologies) was conjugated to AlphaScreen acceptor beads (Perkin Elmer), while the anti-pSTAT6 (pTyr641) antibody (Cell Signaling Technologies) was biotinylated using EZ-Link Sulfo-NHS-Biotin (Thermo Scientific).
BEAS-2B cells were grown at 37° C. in a 5% CO2 humidified incubator in 50% DMEM/50% F-12 medium (Life Technologies) supplemented with 10% FBS (Hyclone), 100 U/mL penicillin, 100 μg/mL streptomycin (Life Technologies), and 2 mM GlutaMAX (Life Technologies). On day 1 of the assay, cells were seeded at a 7,500 cells/well density in white poly-D-lysine-coated 384-well plates (Corning) with 25 μL medium, and were allowed to adhere overnight in the incubator. […] After a minimum of 2 h incubation, the assay plates were read on the EnVision plate reader. AlphaScreen luminescence signals were recorded and utilized to calculate the percent inhibition values based on DMSO and background controls.
For dose-response analysis, percent inhibition data were plotted vs. compound concentrations, and IC50 values were determined from a 4-parameter robust fit model with the Prism software. Results may also be expressed as the negative logarithm of the IC50 value, pIC50.

The target in assay [4] is T3, PAK4 (Homo sapiens, UniProt O96013).
T3 construct: made in house; host or cells: T7 phage in E. coli (BL21-derived) or HEK-293
The assay is described as follows: Kinome screen, PAK4. The assay is classed as binding. The note with it: screened at 1 μM. The method, then:
Kinase-tagged T7 phage strains were grown in parallel in 24-well blocks in an E. coli host derived from the BL21 strain. E. coli were grown to log-phase and infected with T7 phage from a frozen stock (multiplicity of infection=0.4) and incubated with shaking at 32° C. until lysis (90-150 minutes). The lysates were centrifuged (6,000×g) and filtered (0.2 μm) to remove cell debris. The remaining kinases were produced in HEK-293 cells and subsequently tagged with DNA for qPCR detection.
Streptavidin-coated magnetic beads were treated with biotinylated small molecule ligands for 30 minutes at room temperature to generate affinity resins for kinase assays. The liganded beads were blocked with excess biotin and washed with blocking buffer (SeaBlock (Pierce), 1% BSA, 0.05% Tween 20, 1 mM DTT) to remove unbound ligand and to reduce non-specific phage binding. […] Test compounds were prepared as 40× stocks in 100% DMSO and directly diluted into the assay. All reactions were performed in polypropylene 384-well plates in a final volume of 0.04 ml. […] The beads were then re-suspended in elution buffer (1×PBS, 0.05% Tween 20, 0.5 μM non-biotinylated affinity ligand) and incubated at room temperature with shaking for 30 minutes. The kinase concentration in the eluates was measured by qPCR.

T3 sequence (O96013 whole entry): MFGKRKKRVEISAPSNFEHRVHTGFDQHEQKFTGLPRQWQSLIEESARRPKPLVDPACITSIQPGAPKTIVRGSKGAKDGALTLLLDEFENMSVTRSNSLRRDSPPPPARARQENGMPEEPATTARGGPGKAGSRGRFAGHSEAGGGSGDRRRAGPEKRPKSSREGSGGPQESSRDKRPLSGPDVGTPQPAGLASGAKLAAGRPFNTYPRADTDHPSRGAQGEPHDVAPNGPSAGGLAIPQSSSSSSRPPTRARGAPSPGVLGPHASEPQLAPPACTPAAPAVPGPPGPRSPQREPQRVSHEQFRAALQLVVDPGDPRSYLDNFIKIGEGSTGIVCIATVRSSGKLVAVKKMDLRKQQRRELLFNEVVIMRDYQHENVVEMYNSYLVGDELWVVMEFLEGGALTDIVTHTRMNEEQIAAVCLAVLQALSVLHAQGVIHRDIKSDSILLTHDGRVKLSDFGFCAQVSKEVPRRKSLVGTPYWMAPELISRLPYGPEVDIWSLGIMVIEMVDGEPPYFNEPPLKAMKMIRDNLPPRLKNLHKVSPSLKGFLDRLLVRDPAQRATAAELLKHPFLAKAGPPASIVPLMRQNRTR
T2 sequence (P29597 whole entry): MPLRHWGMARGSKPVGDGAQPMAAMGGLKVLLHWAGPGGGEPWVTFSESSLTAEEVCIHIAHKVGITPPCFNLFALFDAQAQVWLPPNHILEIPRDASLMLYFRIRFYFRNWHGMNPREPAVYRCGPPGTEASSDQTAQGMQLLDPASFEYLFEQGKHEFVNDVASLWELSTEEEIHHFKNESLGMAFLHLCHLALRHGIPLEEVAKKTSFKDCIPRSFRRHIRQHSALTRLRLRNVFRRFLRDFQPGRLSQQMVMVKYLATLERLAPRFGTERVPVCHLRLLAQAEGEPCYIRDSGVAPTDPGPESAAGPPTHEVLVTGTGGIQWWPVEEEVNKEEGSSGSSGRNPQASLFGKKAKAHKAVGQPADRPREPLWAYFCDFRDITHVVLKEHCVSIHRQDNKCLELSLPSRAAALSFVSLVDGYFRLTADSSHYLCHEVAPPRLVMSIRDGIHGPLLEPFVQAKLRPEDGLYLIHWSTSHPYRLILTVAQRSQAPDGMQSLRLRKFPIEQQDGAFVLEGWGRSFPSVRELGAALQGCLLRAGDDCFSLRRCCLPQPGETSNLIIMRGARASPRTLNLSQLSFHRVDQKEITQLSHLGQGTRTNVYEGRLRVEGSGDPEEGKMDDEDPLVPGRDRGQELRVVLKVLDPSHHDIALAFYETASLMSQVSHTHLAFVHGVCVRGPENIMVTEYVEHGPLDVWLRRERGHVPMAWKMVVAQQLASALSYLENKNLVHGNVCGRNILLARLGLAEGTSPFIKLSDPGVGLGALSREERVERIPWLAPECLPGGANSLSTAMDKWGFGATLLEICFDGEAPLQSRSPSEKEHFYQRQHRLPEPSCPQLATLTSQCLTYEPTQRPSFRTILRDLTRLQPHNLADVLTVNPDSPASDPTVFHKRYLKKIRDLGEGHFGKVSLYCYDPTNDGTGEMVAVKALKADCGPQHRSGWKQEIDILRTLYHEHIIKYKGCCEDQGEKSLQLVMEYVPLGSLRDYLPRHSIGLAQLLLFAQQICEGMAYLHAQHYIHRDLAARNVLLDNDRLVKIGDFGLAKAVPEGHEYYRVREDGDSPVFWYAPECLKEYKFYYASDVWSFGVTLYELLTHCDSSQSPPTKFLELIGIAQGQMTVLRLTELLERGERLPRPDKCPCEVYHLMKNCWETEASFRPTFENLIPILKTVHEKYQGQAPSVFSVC
T1 sequence (O60674 whole entry): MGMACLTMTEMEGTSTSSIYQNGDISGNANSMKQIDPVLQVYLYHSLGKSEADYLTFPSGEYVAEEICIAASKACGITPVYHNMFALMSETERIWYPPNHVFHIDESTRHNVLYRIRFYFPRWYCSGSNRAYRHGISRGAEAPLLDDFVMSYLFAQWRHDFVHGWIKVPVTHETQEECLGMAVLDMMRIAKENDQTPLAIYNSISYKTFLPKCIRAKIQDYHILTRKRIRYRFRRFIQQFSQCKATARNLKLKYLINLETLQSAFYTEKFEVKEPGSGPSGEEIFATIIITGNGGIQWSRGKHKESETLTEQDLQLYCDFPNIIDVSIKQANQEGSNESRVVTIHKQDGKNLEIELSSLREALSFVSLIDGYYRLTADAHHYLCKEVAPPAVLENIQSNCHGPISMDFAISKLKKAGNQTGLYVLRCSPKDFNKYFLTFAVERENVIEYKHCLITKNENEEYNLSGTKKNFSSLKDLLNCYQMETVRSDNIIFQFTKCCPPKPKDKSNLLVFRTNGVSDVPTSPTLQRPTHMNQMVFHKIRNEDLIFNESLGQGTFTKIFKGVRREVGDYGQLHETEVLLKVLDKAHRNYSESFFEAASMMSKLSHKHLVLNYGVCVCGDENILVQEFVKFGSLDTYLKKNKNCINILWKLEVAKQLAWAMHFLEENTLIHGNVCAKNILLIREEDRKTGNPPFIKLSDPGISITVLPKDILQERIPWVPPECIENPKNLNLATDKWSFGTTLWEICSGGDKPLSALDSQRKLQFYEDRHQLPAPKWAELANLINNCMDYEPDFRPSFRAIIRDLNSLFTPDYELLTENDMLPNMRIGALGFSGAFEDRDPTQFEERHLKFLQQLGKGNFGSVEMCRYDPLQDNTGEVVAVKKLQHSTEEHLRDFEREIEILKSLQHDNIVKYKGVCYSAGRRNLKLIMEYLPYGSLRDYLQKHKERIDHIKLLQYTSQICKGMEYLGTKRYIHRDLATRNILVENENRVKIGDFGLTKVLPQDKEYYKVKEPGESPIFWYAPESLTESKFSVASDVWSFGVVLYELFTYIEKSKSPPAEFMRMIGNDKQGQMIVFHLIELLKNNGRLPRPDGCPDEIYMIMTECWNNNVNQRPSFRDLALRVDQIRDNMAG

With `CCc1cc(O)c(F)cc1-c1cc(F)c2c(-c3nc4c([nH]3)CCN(C(=O)CN3CCOCC3)C4)n[nH]c2c1` [Compound 1, 1-(2-(6-(2-ethyl-5-fluoro-4-hydroxyphenyl)-4-fluoro-1H-indazol-3-yl)-1,4,6,7-tetrahydro-5H-imidazo[4,5-c]pyridin-5-yl)-2-morpholinoethan-1-one], the Ki was 0.0251 nM in assay [1] and 2 nM in assay [2]. In addition, in assay [3] (Assay 2, BEAS-2B cells, read-out: IC50 for inhibition of IL-13), the negative-log IC50 (pIC50) is 7.89. In addition, the IC50 in assay [3] (BEAS-2B cells, read-out: pIC50, inhibition of IL-13 induced STAT6 phosphorylation (converted)) was 12.6 nM. The compound also had an inhibition at 1 µM in assay [4] of 93%.
